With `CSC(=NS(=O)(=O)N1CCOCC1)N1CC(c2ccccc2F)C(c2ccc(Cl)cc2)=N1` (centres unmarked) [Example 47, 3-(4-Chlorophenyl)-4-(2-fluorophenyl)-N-((morpholin-4-yl)sulfonyl)-4,5-dihydro-1H-pyrazole-1-carboximidothioic acid methyl ester], the melting point was 205 to 207 °C. To `CNC(=NS(=O)(=O)N1CCCCC1)N1CC(c2cccc(C(F)(F)F)c2)C(c2ccc(Cl)cc2)=N1` (centres unmarked) belongs 168 to 170 °C; to `CCN(C)S(=O)(=O)N=C(SC)N1CC(c2cccnc2)C(c2ccc(Cl)cc2)=N1` (centres unmarked) [Example 44, 3-(4-Chlorophenyl)-N-(((ethyl)methylamino)sulfonyl)-4-(pyridin-3-yl)-4,5-dihydro-1H-pyrazole-1-carboximidothioic acid methyl ester], 133 to 136 °C. For `CCCN(C)S(=O)(=O)N=C(NC)N1CC(c2ccccc2)C(c2ccc(Cl)cc2)=N1` (centres unmarked) the value was 132 to 134 °C; for `CNC(=NS(=O)(=O)N1CCCCC1)N1CC(c2c(F)cccc2F)C(c2ccc(Cl)cc2)=N1` (centres unmarked) [Example 81, 3-(4-Chlorophenyl)-4-(2,6-difluorophenyl)-N-methyl-N′-((piperidin-1-yl)sulfonyl)-4,5-dihydro-1H-pyrazole-1-carboxamidine], 260 to 263 °C; for `CSC(=NS(=O)(=O)N1CCS(=O)(=O)CC1)N1CC(c2ccccc2)C(c2ccc(Cl)cc2)=N1` (centres unmarked) [Example 53, 3-(4-Chlorophenyl)-N-((1,1-dioxidothiomorpholin-4-yl)sulfonyl)-4-phenyl-4,5-dihydro-1H-pyrazole-1-carboximidothioic acid methyl ester], 216 to 217 °C.

Compound `CCN(CC)S(=O)(=O)N=C(NC)N1CC(c2ccccc2)C(c2ccc(Cl)s2)=N1` (centres unmarked) [Example 58, 3-(5-Chlorothien-2-yl)-N′-((diethylamino)sulfonyl)-N-methyl-4-phenyl-4,5-dihydro-1H-pyrazole-1-carboxamidine] had a melting point of 122 to 123 °C. To `CNC(=NS(=O)(=O)N1CCOCC1)N1CC(c2c(F)cccc2F)C(c2ccc(Cl)cc2)=N1` (centres unmarked) [Example 79, 3-(4-Chlorophenyl)-4-(2,6-difluorophenyl)-N-methyl-N′-((morpholin-4-yl)sulfonyl)-4,5-dihydro-1H-pyrazole-1-carboxamidine] belongs 223 to 235 °C; to `CCN(C)C(=NS(=O)(=O)N1CCCCC1)N1CC(c2ccccc2)C(c2ccc(Cl)cc2)=N1` (centres unmarked), 178 °C. Regarding `CNC(=NS(=O)(=O)N1CCOCC1)N1CC(c2ccccc2F)C(c2ccc(Cl)cc2)=N1` (centres unmarked) [Example 86, 3-(4-Chlorophenyl)-4-(2-fluorophenyl)-N-methyl-N′-((morpholin-4-yl)sulfonyl)-4,5-dihydro-1H-pyrazole-1-carboxamidine], the melting point lay in the range of 165 to 168 °C. Regarding `CCN(CC)S(=O)(=O)N=C(NC)N1CC(c2ccncc2)C(c2ccc(Cl)cc2)=N1` (centres unmarked) [Example 71, N′-((Diethylamino)sulfonyl)-3-(4-chlorophenyl)-N-methyl-4-(pyridin-4-yl)-4,5-dihydro-1H-pyrazole-1-carboxamidine], the melting point fell in the range of 109 to 111 °C. To `CCN(CCN(C)C)S(=O)(=O)N=C(SC)N1CC(c2ccccc2)C(c2ccc(Cl)cc2)=N1` (centres unmarked) [Example 95, 3-(4-Chlorophenyl)-N-(((2-(dimethylamino)ethyl)ethylamino)sulfonyl)-4-phenyl-4,5-dihydro-1H-pyrazole-1-carboximidothioic acid methyl ester] belongs 158 °C; to `CNC(=NS(=O)(=O)N(C)C)N1CC(c2cccc(C(F)(F)F)c2)C(c2ccc(Cl)cc2)=N1` (centres unmarked), 65 to 68 °C. With `CSC(=NS(=O)(=O)N1CCCCC1)N1CC(c2ccccc2F)C(c2ccc(Cl)cc2)=N1` (centres unmarked) [Example 48, 3-(4-Chlorophenyl)-4-(2-fluorophenyl)-N-((piperidin-1-yl)sulfonyl)-4,5-dihydro-1H-pyrazole-1-carboximidothioic acid methyl ester], the melting point lay in the range of 196 to 198 °C. To `CNC(=NS(=O)(=O)N1CCCCC1)N1CC(c2cccnc2)C(c2ccc(Cl)cc2)=N1` (centres unmarked) [Example 78, 3-(4-Chlorophenyl)-N-methyl-N′-((piperidin-1-yl)sulfonyl)-4-(pyridin-3-yl)-4,5-dihydro-1H-pyrazole-1-carboxamidine] belongs 174 to 177 °C.

Take `CNC(=NS(=O)(=O)N1CCCCC1)N1CC(c2cccc(F)c2)C(c2ccc(Cl)cc2)=N1` (centres unmarked) [Example 82, 3-(4-Chlorophenyl)-4-(3-fluorophenyl)-N-methyl-N′-((piperidin-1-yl)sulfonyl)-4,5-dihydro-1H-pyrazole-1-carboxamidine]: the melting point worked out at 170 °C. To `CCNC(=NS(=O)(=O)N(CC)CC)N1CC(O)(c2ccccc2)C(c2ccc(Cl)cc2)=N1` (centres unmarked) [Example 68, 3-(4-Chlorophenyl)-N′-((diethylamino)sulfonyl)-N-ethyl-4-hydroxy-4-phenyl-4,5-dihydro-1H-pyrazole-1-carboxamidine] belongs 162 to 165 °C.

In turn, `CNC(=NS(=O)(=O)N1CCCCC1)N1CC(c2ccccc2F)C(c2ccc(Cl)cc2)=N1` (centres unmarked) [Example 83, 3-(4-Chlorophenyl)-4-(2-fluorophenyl)-N-methyl-N′-((piperidin-1-yl)sulfonyl)-4,5-dihydro-1H-pyrazole-1-carboxamidine] showed a melting point of 223 to 225 °C. To `CN(C)S(=O)(=O)N=C(NCC(F)(F)F)N1CC(c2ccccc2)C(c2ccc(Cl)cc2)=N1` (centres unmarked) belongs 158 to 159 °C.

In turn, `CNC(=NS(=O)(=O)N1CCC(O)CC1)N1CC(c2ccccc2)C(c2ccc(Cl)cc2)=N1` (centres unmarked) [Example 88, 3-(4-Chlorophenyl)-N′-((4-hydroxypiperidin-1-yl)sulfonyl)-N-methyl-4-phenyl-4,5-dihydro-1H-pyrazole-1-carboxamidine] showed a melting point of 80 °C. To `CN(C)S(=O)(=O)N=C(NCCO)N1CC(c2ccccc2)C(c2ccc(Cl)cc2)=N1` (centres unmarked) [Example 18, 3-(4-Chlorophenyl)-N′-((dimethylamino)sulfonyl)-N-(2-hydroxyethyl)-4-phenyl-4,5-dihydro-1H-pyrazole-1-carboxamidine] belongs 123 to 126 °C; to `CCN(CC)S(=O)(=O)N=C(N(C)C)N1CC(O)(c2ccccc2)C(c2ccc(Cl)cc2)=N1` (centres unmarked) [Example 63, 3-(4-Chlorophenyl)-N′-((diethylamino)sulfonyl)-N,N-dimethyl-4-hydroxy-4-phenyl-4,5-dihydro-1H-pyrazole-1-carboxamidine], 135 to 137 °C; to `CCN(c1ccccc1)S(=O)(=O)N=C(SC)N1CC(c2ccccc2)C(c2ccc(Cl)cc2)=N1` (centres unmarked) [Example 39, 3-(4-Chlorophenyl)-N-(((ethyl)phenylamino)sulfonyl)-4-phenyl-4,5-dihydro-1H-pyrazole-1-carboximidothioic acid methyl ester], 143 to 146 °C. For `CSC(=NS(=O)(=O)N1CCOCC1)N1CC(c2ccccc2)C(c2ccc(Cl)cc2)=N1` (centres unmarked) the value was 202 to 204 °C.

On to `CCCN(CC)S(=O)(=O)N=C(NC)N1CC(c2ccccc2)C(c2ccc(Cl)cc2)=N1` (centres unmarked) [Example 1, 3-(4-Chlorophenyl)-N′-(((ethyl)propylamino)sulfonyl)-N-methyl-4-phenyl-4,5-dihydro-1H-pyrazole-1-carboxamidine], for which the melting point lay in the range of 129 to 131 °C. For `CSC(=NS(=O)(=O)N1CCCCC1)N1CC(c2ccccc2)C(c2ccc(Cl)cc2)=N1` (centres unmarked) the value was 192 to 194 °C; for `CNC(=NS(=O)(=O)N(C)C)N1CC(c2c(F)cccc2F)C(c2ccc(Cl)cc2)=N1` (centres unmarked) [Example 80, 3-(4-Chlorophenyl)-4-(2,6-difluorophenyl)-N′-((dimethylamino)sulfonyl)-N-methyl-4,5-dihydro-1H-pyrazole-1-carboxamidine], 214 to 216 °C. To `CSC(=NS(=O)(=O)N(C)C)N1CC(c2c(F)cccc2F)C(c2ccc(Cl)cc2)=N1` (centres unmarked) belongs 181 to 185 °C. To `CSC(=NS(=O)(=O)N1CCc2ccccc2C1)N1CC(c2ccccc2)C(c2ccc(Cl)cc2)=N1` (centres unmarked) [Example 38, 3-(4-Chlorophenyl)-4-phenyl-N-((1,2,3,4-tetrahydroisoquinolin-2-yl)sulfonyl)-4,5-dihydro-1H-pyrazole-1-carboximidothioic acid methyl ester] belongs 143 to 145 °C.

Usually melting point stands for the temperature, or range, at which the solid turns liquid.

The values above are taken from patent publication US7608718B2, “4,5-dihydro-1H-pyrazole derivatives having potent CB1-antagonistic activity” (Solvay Pharmaceuticals B.V., priority 2001, dated 2009).
